Columns and labels:
[1] = tested on: precancerous mammary alveolar lesions (MAL); assay: Mouse mammary gland organ culture, DMBA-induced mammary alveolar lesions; assay type: cell-based, Balb/c mice
Experimental: Mammary glands obtained from young Balb/c mice that are exposed to 7,12-dimethylbenz(a)anthracene (DMBA) for 24 h in culture to form precancerous lesions in 24 days. The procedure has been successfully used to determine efficacy of chemopreventive agents and is described in detail elsewhere. (Mehta et al. PPARγ ligand and retinoids prevent preneoplastic mammary lesions. J. Natl Cancer Instit 2000; 92:418-23). Briefly, 70 mammary glands from 35 Balb/c mice were divided into seven groups of 10 glands each and incubated in serum-free medium containing insulin, prolactin (5 μg/ml each), aldosterone and hydrocortisone (1 μg/ml each) for 10 days. DMBA (2 μg/ml) was included in the medium for 24 h on day 3. […] The glands were fixed in formalin and stained with alum carmine and evaluated for MAL. Percent inhibition was calculated by comparing the incidence in the control glands with the treated groups.
Mammary glands obtained from young Balb/c mice were exposed to DMBA as described above and MAL formation was monitored. […] (Mehta et al. PPARγ ligand and retinoids prevent preneoplastic mammary lesions. J. Natl Cancer Instit 2000; 92:418-23) In the present study, we evaluated effects of etoposide and ML-7 at 0.1, 1.0 and 10.0 μM concentrations on the development of MAL in organ culture. […] Percentage inhibition was calculated by comparing the incidence in the control glands with the treated groups. […]

Mm5MT cells = tested on: Mm5MT cells
Experimental: To investigate the anticancer activity of ML-7 in vivo, Mm5MT cells grown in culture were harvested immediately before injection into syngeneic MMTV-C3H/HeN mice. Cells were washed to remove serum and 10^6 cells were resuspended in 100 μl of serum-free DMEM. Healthy, MMTV-free female mice (14-20 weeks old) were anesthetized with ether and 10^6 cells were injected subcutaneously into the right flank. The mice were randomly divided into four groups of five mice each, and treated with vehicle, ML-7, etoposide or ML-7 plus etoposide. […] To deliver ML-7, a small horizontal incision was made in the interscapular area and a 200 μl osmotic pump (Alzet, Cupertino, Calif.) filled with either 27 mM ML-7 in 50% DMSO or 50% DMSO (vehicle control) was implanted and the wound closed. When given, 25 mg/kg etoposide was injected intraperitoneally on the first 3 days of every week for 4 weeks (days 7-9, 14-16, 21-23 and 28-30). The mice were sacrificed with ether after 4 weeks of drug administration and tumors were removed, weighed and processed for analysis.
Excised tumors were gently patted dry and weighed using a Mettler digital balance. Tumors were sectioned into 2 mm slices, fixed in 10% neutral buffered formalin, routinely processed and embedded in paraffin. […] Photomicrographs documenting the entire section were collected and areas of necrotic and viable tumor were determined using the manual tracing tools within MetaMorph 6.2 (Universal Imaging Corporation, Downingtown, Pa.).

MLC-P = MLC-P by urea/glycerol gel immunoblotting in MLL cells; assay type: cell-based, rat; settings: 5 μM ML-7, 30 μM etoposide or both
MLC20 phosphorylation = MLC20 phosphorylation by urea gel/Western blotting in smooth muscle cells (SMC); assay type: cell-based, pig; settings: 24 hrs, 10 μM Dex, 10 μM ActD, 100 μM Chx, 2 μM Cam, 100 μM Eto
Experimental: NIH 3T3 fibroblasts were obtained from ATCC and were grown in Dulbecco's Modified Eagle Medium (DMEM) (Gibco BRL, Gaithersburg, Md.) supplemented with 10% FBS and 1% penicillin and streptomycin in a 37° C. incubator. 3T3 cells were treated with 500 nM actinomycin D in DMEM containing 0.5% FBS without antibiotics for the 0, 2, 4, 8, 16, or 24 hours. Cells were then washed with phosphate buffered saline (PBS). Floating cells were collected by centrifugation and combined with attached cells that were harvested by trypsinization. MLC20 phosphorylation was quantified be Western blotting with an anti-MLC20 antibody (FIG. 1). In short, the harvested cells were treated with ice cold 10% TCA, 10 mM DTT to precipitate the cellular proteins. The pellets were washed with acetone, dissolved in 9 M urea, 10 mM DTT, 20 mM Tris, pH 7.5 and separated using glycerol-urea polyacrylamide gel electrophoresis (PAGE). The proteins were transferred to nitrocellulose, the un-, mono-, and di-phosphorylated forms of MLC20 were identified using an affinity purified antibody to MLC20 and horseradish peroxidase-linked secondary antibody (Jackson ImmunoResearch, West Grove, Pa.). Protein bands were visualized with ECL reagent and the stoichiometry of phosphorylation (mol PO4/mol MLC20) was calculated as described (Obara et al., 1989, “Okadaic acid, a phosphatase inhibitor, produces a Ca2+ and calmodulin-independent contraction of lamb tracheal smooth muscle,” Pfluger's Archiv. 414: 134-138).
The stoichiometry of MLC20 phosphorylation (FIG. 1B, inset) was quantified using the urea gel/Western blotting method described above in untreated (Un) pig pulmonary artery smooth muscle cells (SMC) and SMC treated with 10 μM dexamethasone (Dex), 10 μM actinomycin D (ActD), 100 μM cycloheximide (Chx), 2 μM camptothecin (Cam), and 100 μM etoposide (Eto) for 24 hrs (mean+/−SE, n=3).
Next, in order to determine whether MLC-DP can trigger cell death, SMC were treated with ML-7 or KT5926, two inhibitors of MLCK (Nakanishi et al., 1990; Garcia, 1998; and Bain et al., 2003).
SMC cells were either treated with 10 μM cytochalasin D (CytD) or grown on the non-ionic substrate polyHema to prevent attachment.

In the case of `COc1cc([C@@H]2c3cc4c(cc3[C@@H](O[C@@H]3O[C@@H]5CO[C@@H](C)O[C@H]5[C@H](O)[C@H]3O)[C@H]3COC(=O)[C@H]23)OCO4)cc(OC)c1O` [etoposide], the MAL formation ([1]; 0.1 μM) is reported as “did not affect MAL formation”, the “inhibition of incidence of MAL formation compared to control” value ([1]; 1 and 10 μM) is reported as 40-46% and the “tumor necrosis (histology)” value (Mm5MT cells; FIG. 14B) is reported as “Limited areas of necrosis”. The tolerability (Mm5MT cells; mouse, in vivo) was “without visible signs of discomfort”, the tumor growth (Mm5MT cells; single agents vs vehicle, only the etoposide effect statistically significant) was “decreased tumor growth” and the MLC-P (MLC-P) was “smaller decrease in MLC-P”. The MLC20 phosphorylation (MLC20 phosphorylation) was “dephosphorylated”.

Source: patent US20080081078A1, “Prevention of Cell Proliferation by Inhibiting Myosin Light Chain Kinase” (The Board of Trustees of the University of Illinois, priority 2006, published 2008)
